{
  "source": "patent US11442059B2",
  "about": "“Method for treating a chronic itch condition by administering small molecule MrgprX4 antagonists” (The Johns Hopkins University, priority 2017, dated 2022)",
  "format_in_all_cases": "cell-based",
  "key": {"Mrgprc11-GFP": {"biological_target": "T1, Mrgprc11-GFP (Mus musculus, UniProt Q8CIP3)", "T1 construct": "expressed in transfected cells", "T1 sequence (Q8CIP3 1-322)": "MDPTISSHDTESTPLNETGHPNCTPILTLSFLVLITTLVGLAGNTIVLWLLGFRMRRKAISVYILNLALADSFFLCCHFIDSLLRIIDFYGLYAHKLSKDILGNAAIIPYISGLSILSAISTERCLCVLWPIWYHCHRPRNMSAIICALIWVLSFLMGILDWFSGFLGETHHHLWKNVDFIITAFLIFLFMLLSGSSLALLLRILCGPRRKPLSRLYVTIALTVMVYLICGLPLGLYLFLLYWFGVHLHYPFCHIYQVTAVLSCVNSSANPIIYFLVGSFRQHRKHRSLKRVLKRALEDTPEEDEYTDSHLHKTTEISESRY", "experiment": "Receptor internalization assay, Mrgprc11-GFP HEK293 cells", "conditions": "data not shown", "protocol": "(§1) To label the drug with red-fluorescent dye, […] of LTG was dissolved in 50 μl dimethyformamide (DMF) first, and further diluted with 450 μl reaction buffer (0.1M sodium bicarbonate buffer, pH9.0) to obtain LTG at a concentration of 7.8 mM. Then, 50 μl of Texas-red-conjugated sulfonyl chloride (Thermo Fisher Scientific, T1905) dissolved in DMF at 10 mg ml−1 was slowly added into LTG solution. The reaction was incubated at 4° C. for 1 hour with continuous stirring. The mixture was then diluted into cell culture medium for further use. LTG labeled with Texas Red dye can create bright red-fluorescence with excitation/emission maxima ˜595/615 nm. HEK293 cells stably expressing Mrgpra1-GFP, Mrgprc11-GFP or MRGPRX4-GFP fusion protein were grown in DMEM with 10% FBS. After 4-6 hours of serum starvation, cells were treated with either medium, dye alone, unlabeled LTG or Texas-Red-labeled LTG at 37° C. for 15 or 60 min. Cells were washed with PBS and fixed with 4% paraformaldehyde in PBS. The subcellular localization of Mrgpr-GFP or drug was visualized under a confocal fluorescence microscope with a 400× magnification (Zeiss LSM 700)."}, "Mrgpra1-GFP": {"biological_target": "T2, Mrgpra1-GFP (Mus musculus, UniProt Q91WW5)", "T2 construct": "expressed in transfected cells", "T2 sequence (Q91WW5 1-304)": "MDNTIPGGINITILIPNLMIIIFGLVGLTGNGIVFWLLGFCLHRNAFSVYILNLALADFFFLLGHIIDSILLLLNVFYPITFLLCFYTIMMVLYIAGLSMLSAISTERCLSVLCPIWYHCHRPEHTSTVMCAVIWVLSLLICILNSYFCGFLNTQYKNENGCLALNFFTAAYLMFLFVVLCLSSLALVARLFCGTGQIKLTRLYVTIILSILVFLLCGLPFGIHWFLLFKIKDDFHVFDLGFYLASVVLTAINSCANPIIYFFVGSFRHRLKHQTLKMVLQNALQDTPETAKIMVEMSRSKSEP", "experiment": "Receptor internalization assay, Mrgpra1-GFP HEK293 cells", "conditions": "37° C.", "protocol": "as §1"}, "human dendritic cells": {"system": "human dendritic cells", "experiment": "Calcium imaging of human dendritic cells", "protocol": "(§2) In initial experiments, HEK293 cells were plated on 100 μg/ml poly-D-lysine coated glass cover slips, and transiently transfected with vector containing Mrgprs gene, after 24-48 hours of culture, cells were loaded with Fura 2-acetomethoxy ester calcium indicator (0.5 μM, Molecular Probes) along with pluronic F-127 dispersing agent (0.1%, Molecular Probes) for 30 minutes in the dark at 37° C., then washed with calcium imaging buffer (CIB; NaCl 125 mM, KCl 3 mM, CaCl2 2.5 mM, MgCl2 0.6 mM, HEPES 10 mM, glucose 20 mM, NaHCO3 1.2 mM, sucrose 20 mM, brought to pH 7.4 with NaOH). Drugs were added to Fura 2-loaded cells and intracellular free calcium was measured using 340 nm and 380 nm excitation wavelengths with emission measured at 520 nm with a microscope based imaging system (Nikon Eclipse TE200). Changes in emission fluorescence ratios at 340/380 nm excitation were continuously monitored at 1 second intervals. Later, experiments were performed using Mrgpra1-GFP, Mrgprc11-GFP and MRGPRX4-GFP stable cell lines to confirm the findings obtained from the transiently expressing cells.\nHuman Peripheral Blood Dendritic Cells from four different donors were purchased from Lonza (cc-2701) and […] Technologies (70041). […]"}, "MRGPRX4": {"biological_target": "MRGPRX4 (Homo sapiens, UniProt Q96LA9)", "sequence (Q96LA9 whole entry)": "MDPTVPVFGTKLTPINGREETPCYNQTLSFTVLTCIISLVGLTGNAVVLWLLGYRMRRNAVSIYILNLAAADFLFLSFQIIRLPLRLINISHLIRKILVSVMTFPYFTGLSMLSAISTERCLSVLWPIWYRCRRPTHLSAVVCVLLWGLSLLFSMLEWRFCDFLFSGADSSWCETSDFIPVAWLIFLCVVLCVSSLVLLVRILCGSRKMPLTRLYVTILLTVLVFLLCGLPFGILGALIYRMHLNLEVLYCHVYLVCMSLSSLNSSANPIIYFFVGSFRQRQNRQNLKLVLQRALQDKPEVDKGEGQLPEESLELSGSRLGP", "experiment": "Ca2+ imaging / EC50 determination in HEK293 cells expressing MRGPRX4", "set-up": "expressed in transfected cells", "protocol": "Lamotrigine (LTG), allopurinol, carbamazepine and oxcarbazepine (all from Sigma) were prepared fresh on the day of the experiment. These drugs were dissolved into dimethyl sulfoxide (DMSO) first, and then were diluted at least 10000× into calcium imaging buffer before use. The final concentrations of drugs for each experiment were indicated in the corresponding figure legend.\nas §2\nMrgpra1 or both wild-type and mutant MRGPRX4 stably expressed HEK cells were plated overnight in 100 μl culture media on 96-well plates. […] After 1 hour of incubation at 37° C., cells were allowed to recover for 10 minutes in the dark at room temperature prior to performing intracellular calcium mobilization assay in a FLEXSTATION® multi-mode plate reader (Molecular Devices). […] Responses were determined by subtracting the minimum signal (at the basal level before adding the drug) from the maximum signal (obtained after stimulating with the drug). […]"}},
  "data": [
    {"smiles": "Nc1nnc(-c2cccc(Cl)c2Cl)c(N)n1", "note": "[LTG, Lamotrigine]", "values": [
      {"measurement": "internalization of Mrgprc11-GFP", "setting": "Mrgprc11-GFP", "value": "did not induce the internalization"},
      {"measurement": "internalization of Mrgpra1-GFP", "setting": "Mrgpra1-GFP", "value": "can induce the internalization"},
      {"measurement": "cells activated (Ca2+ imaging)", "setting": "human dendritic cells", "value": "about 5%"},
      {"measurement": "EC50", "setting": "MRGPRX4; HEK293 cells, Ca2+ assay", "value": "~200", "unit": "µM"},
      {"measurement": "activation of human MRGPRX4 (Ca2+ imaging)", "setting": "MRGPRX4; Mrgprs individually expressed in HEK293 cells", "value": "specifically activated"}
    ]}
  ]
}
